For three molecules, cytotoxicity and Kd results are on record in US20250042937A1, “RAPID, GREEN, DISULFIDE BOND FORMATION IN WATER USING DICYANOCOBINAMIDE” (Syracuse University, priority 2023, published 2025).

In one data set the test system is rat retinas. The note with it: low doses (2-5%); cited from earlier work.
For a further data set, the target named is T1, oxytocin receptor (Homo sapiens, UniProt P30559).
T1 sequence (P30559 1-389): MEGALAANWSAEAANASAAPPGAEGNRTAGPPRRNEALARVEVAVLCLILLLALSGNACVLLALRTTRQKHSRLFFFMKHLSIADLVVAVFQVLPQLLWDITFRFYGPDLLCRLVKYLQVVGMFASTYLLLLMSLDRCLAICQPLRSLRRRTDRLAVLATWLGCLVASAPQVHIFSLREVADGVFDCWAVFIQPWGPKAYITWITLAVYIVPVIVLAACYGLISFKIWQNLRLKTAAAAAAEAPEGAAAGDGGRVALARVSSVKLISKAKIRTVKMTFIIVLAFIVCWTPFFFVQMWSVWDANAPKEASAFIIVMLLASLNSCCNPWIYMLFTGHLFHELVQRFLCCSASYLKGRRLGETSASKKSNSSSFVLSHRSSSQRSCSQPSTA
Description: screening at the oxytocin receptor (agonism) after Cbi oxidation. The note with it: peptide oxidized with Cbi; free or conjugated to B12. Type of data set: cell-based.

On to `C[S+](C)[O-]` [DMSO, dimethyl sulfoxide], for which the cytotoxicity entry in the data set with rat retinas was “cytotoxic”.

Regarding `CC[C@H](C)[C@@H]1NC(=O)[C@H](Cc2ccc(O)cc2)NC(=O)[C@@H](N)CSSC[C@@H](C(=O)N2CCC[C@H]2C(=O)N[C@@H](CCCCN=[N+]=[N-])C(=O)NCC(N)=O)NC(=O)[C@H](CC(N)=O)NC(=O)[C@H](CCC(N)=O)NC1=O` [OT], the affinity at oxytocin receptor, expressed as Kd, was 4.39 nM.

For the molecule “OT after conjugation to B12: OT peptide conjugated to vitamin B12”, the Kd (commonly the free concentration of one partner at which half of the binding sites on the other are occupied at equilibrium, for simple one-to-one binding) with oxytocin receptor is 4.63 nM.
